Data from the supplement of paper PMC10307832.

What follows are cell lines tested with C[C@]1(c2nc3c(C(N)=O)cccc3[nH]2)CCCN1 [Veliparib] + CC(=O)Nc1cccc(-n2c(=O)n(C3CC3)c(=O)c3c(Nc4ccc(I)cc4F)n(C)c(=O)c(C)c32)c1 [Trametinib] (partner 0.02 µM) (assay: relative viability (nuclei count vs DMSO), 5 days (fraction); higher = more cells survive). Conditions: first compound 2 µM.
In short: (§1)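 Cells from lung cancer lines were seeded into 1536-well plates and, one day later, dosed by pin tool. Treatments were either a single drug or a fixed dose of an anchor drug with five library-drug doses (not always all listed) in √10 steps. After 5 days, nuclei were stained in a one-step fixation (final 0.05% Triton X-100, 1% formaldehyde, 1 ug/ml Hoechst) and counted on 4× images, and relative viability is the treated-to-vehicle nuclei ratio, as the median of duplicate plates.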
For NCI-H2087, the relative viability was 0.154.

What follows are cell lines tested with C[C@]1(c2nc3c(C(N)=O)cccc3[nH]2)CCCN1 [Veliparib] + CCNC(=O)c1noc(-c2cc(C(C)C)c(O)cc2O)c1-c1ccc(CN2CCOCC2)cc1 [Luminespib] (partner 0.01 µM) in the same assay as above. Conditions: first compound 0.02 µM.
In short: as §1
NCI-H1651 was tested, and the relative viability was 0.724.
Cell Line COR-L23 has a relative viability of 0.696.
Work on HCC-827 yielded a relative viability of 0.468.
For LCLC-103H, the relative viability was 0.987.
RERF-LC-KJ was tested, and the relative viability was 1.26.
Cell Line NCI-H3122 has a relative viability of 0.0959.
BEN gave a relative viability of 0.161.
With UMC-11 the relative viability was 1.11.
LCLC-97TM1 gave a relative viability of 0.729.
Work on NCI-H727 yielded a relative viability of 0.442.
Cell Line NCI-H838 has a relative viability of 0.287.
In the case of NCI-H1793, the relative viability is reported as 0.196.
201T was tested, and the relative viability was 0.995.
For NCI-H2228, the relative viability was 0.141.
Cell Line LOU-NH91 has a relative viability of 0.339.
Work on NCI-H1666 yielded a relative viability of 1.01.
For NCI-H650, the relative viability was 0.768.
With NCI-H1993 the relative viability was 0.713.
HCC-44 was tested, and the relative viability was 1.09.
NCI-H647 showed a relative viability of 0.249.
NCI-H2126 showed a relative viability of 0.875.
NCI-H1755 was tested, and the relative viability was 0.551.
PC-3 [JPC-3] showed a relative viability of 0.65.
NCI-H1792 showed a relative viability of 0.509.
For NCI-H2087, the relative viability was 0.167.

Same assay, conditions: first compound 0.06325 µM
NCI-H1651 was tested, and the relative viability was 0.806.
In the case of COR-L23, the relative viability is reported as 0.523.
Work on HCC-827 yielded a relative viability of 0.692.
In the case of LCLC-103H, the relative viability is reported as 0.888.
RERF-LC-KJ gave a relative viability of 1.25.
NCI-H3122 gave a relative viability of 0.0908.
Work on BEN yielded a relative viability of 0.188.
With UMC-11 the relative viability was 0.994.
Cell Line LCLC-97TM1 has a relative viability of 0.729.
Cell Line NCI-H2085 has a relative viability of 0.438.
In the case of A-427, the relative viability is reported as 0.908.
For NCI-H727, the relative viability was 0.33.
In the case of NCI-H838, the relative viability is reported as 0.32.
Work on NCI-H1793 yielded a relative viability of 0.174.
For 201T, the relative viability was 1.11.
NCI-H2228 showed a relative viability of 0.0988.
With LOU-NH91 the relative viability was 0.401.
With NCI-H1666 the relative viability was 0.984.
Cell Line NCI-H650 has a relative viability of 0.708.
NCI-H1993 gave a relative viability of 0.675.
With NCI-H647 the relative viability was 0.142.
For NCI-H2126, the relative viability was 0.908.
In the case of NCI-H1755, the relative viability is reported as 0.553.
Work on PC-3 [JPC-3] yielded a relative viability of 0.711.
NCI-H1792 showed a relative viability of 0.361.
For NCI-H2087, the relative viability was 0.188.

Same assay, conditions: first compound 0.2 µM
NCI-H1651 showed a relative viability of 0.88.
COR-L23 showed a relative viability of 0.558.
With HCC-827 the relative viability was 0.654.
LCLC-103H gave a relative viability of 1.04.
Work on RERF-LC-KJ yielded a relative viability of 1.2.
In the case of NCI-H3122, the relative viability is reported as 0.097.
BEN showed a relative viability of 0.308.
In the case of UMC-11, the relative viability is reported as 1.02.
For LCLC-97TM1, the relative viability was 0.884.
NCI-H2085 gave a relative viability of 0.426.
A-427 gave a relative viability of 0.72.
With NCI-H727 the relative viability was 0.364.
NCI-H838 gave a relative viability of 0.302.
NCI-H1793 gave a relative viability of 0.177.
For 201T, the relative viability was 1.07.
NCI-H2228 gave a relative viability of 0.145.
Cell Line LOU-NH91 has a relative viability of 0.352.
With NCI-H1666 the relative viability was 0.968.
For NCI-H650, the relative viability was 0.652.
Cell Line NCI-H1993 has a relative viability of 0.968.
HCC-44 was tested, and the relative viability was 1.12.
Cell Line NCI-H647 has a relative viability of 0.195.
NCI-H2126 showed a relative viability of 0.839.
NCI-H1755 was tested, and the relative viability was 0.41.
Work on PC-3 [JPC-3] yielded a relative viability of 0.753.
Cell Line NCI-H1792 has a relative viability of 0.508.
Work on NCI-H2087 yielded a relative viability of 0.152.

Same assay, conditions: first compound 0.6325 µM
For NCI-H1651, the relative viability was 0.486.
COR-L23 was tested, and the relative viability was 0.538.
HCC-827 gave a relative viability of 0.493.
Cell Line LCLC-103H has a relative viability of 0.907.
With RERF-LC-KJ the relative viability was 1.21.
Work on NCI-H3122 yielded a relative viability of 0.0912.
Cell Line BEN has a relative viability of 0.557.
In the case of UMC-11, the relative viability is reported as 0.958.
LCLC-97TM1 gave a relative viability of 0.671.
NCI-H2085 was tested, and the relative viability was 0.273.
With A-427 the relative viability was 1.12.
With NCI-H727 the relative viability was 0.265.
Work on NCI-H838 yielded a relative viability of 0.295.
For NCI-H1793, the relative viability was 0.169.
With 201T the relative viability was 1.1.
NCI-H2228 was tested, and the relative viability was 0.123.
LOU-NH91 gave a relative viability of 0.285.
With NCI-H1666 the relative viability was 0.941.
For NCI-H650, the relative viability was 0.721.
Cell Line NCI-H1993 has a relative viability of 0.64.
Cell Line HCC-44 has a relative viability of 0.917.
In the case of NCI-H647, the relative viability is reported as 0.12.
NCI-H2126 gave a relative viability of 0.901.
Cell Line NCI-H1755 has a relative viability of 0.357.
With PC-3 [JPC-3] the relative viability was 0.662.
NCI-H1792 showed a relative viability of 0.429.
Cell Line NCI-H2087 has a relative viability of 0.14.

Same assay, conditions: first compound 2 µM
NCI-H1651 gave a relative viability of 0.651.
Work on COR-L23 yielded a relative viability of 0.433.
In the case of HCC-827, the relative viability is reported as 0.588.
LCLC-103H showed a relative viability of 0.992.
RERF-LC-KJ gave a relative viability of 1.29.
NCI-H3122 showed a relative viability of 0.0755.
In the case of BEN, the relative viability is reported as 0.148.
UMC-11 showed a relative viability of 0.975.
LCLC-97TM1 was tested, and the relative viability was 0.678.
In the case of NCI-H2085, the relative viability is reported as 0.447.
A-427 was tested, and the relative viability was 0.931.
NCI-H727 gave a relative viability of 0.353.
In the case of NCI-H838, the relative viability is reported as 0.25.
NCI-H1793 showed a relative viability of 0.181.
With 201T the relative viability was 1.11.
In the case of NCI-H2228, the relative viability is reported as 0.154.
Cell Line LOU-NH91 has a relative viability of 0.342.
In the case of NCI-H1666, the relative viability is reported as 0.982.
NCI-H650 showed a relative viability of 0.797.
Cell Line NCI-H1993 has a relative viability of 0.895.
Work on HCC-44 yielded a relative viability of 0.985.
Work on NCI-H647 yielded a relative viability of 0.359.
Cell Line NCI-H2126 has a relative viability of 0.95.
For NCI-H1755, the relative viability was 0.36.
Cell Line PC-3 [JPC-3] has a relative viability of 0.66.
In the case of NCI-H1792, the relative viability is reported as 0.331.
NCI-H2087 showed a relative viability of 0.145.
